Assay results reported in patent EP2472259B1, “Specific molecules clinging to a lure” (Forschungszentrum Jülich GmbH, priority 2006, dated 2014).

How the values were obtained:
Experiment in all cases: anti-phage ELISA, relative SH3 binding activity of phage clones
Lck-SH3 = test system: Lck-SH3; parameters: species or system menschlichen; conditions: phage-displayed peptide, Fig. 2f; binding to Lck-SH3 compared with other SH3 domains
Excerpt: (§1) "anti-Phage-ELISA" - Bestimmung der relativen SH3-Bindungsaktivität einzelner Phagenklone
(§2) Dieser Bindungstest ist ein häufig verwendeter Test zur schnellen Bestimmung relativer Bindungsstärken selektierter Peptide, die hierbei noch physikalisch mit dem Phagen verknüpft vorliegen. Dieser Schritt dient auch zur Eliminierung von (bei dieser Methode nicht selten auftretenden) Phagenvarianten, die z. B. aufgrund ihrer Affinität zur Plastikoberfläche der verwendeten Mikrotiterplatten, angereichert werden und die somit zur Verfälschung der Ergebnisse führen können. Eine grundsätzliche Beschreibung der Methode findet sich z. B. unter Sparks et al. Methods Enzymol. 1995; 255:498-509.
(§3) GST-SH3 Protein wurde in einer Konzentration von 1-10 µg/ml in Tris-Bis über Nacht bei 4°C in Mikrotiterplatten immobilisiert. Verbleibende Bindungsstellen wurden durch 2-stündige Inkubation mit Blockierungspuffer (Bis-Tris mit 2 % Magermilchpulver) abgesättigt. In einer anderen Mikrotiterplatte wurden zuerst je 100 µl Suspension der zu testenden Phagenvariante mit 100 µl Blockierungspuffer für 20 Minuten vorinkubiert und erst dann für 1 Stunde zum immobilisierten GST-SH3 Protein gegeben. Nach einem Waschschritt mit Bis-Tris wurde ein Meerrettich-Peroxidase-konjugierter Antikörper zugegeben und die Platten für eine weitere Stunde inkubiert. […]

Hck-SH3 = conditions: phage-displayed peptide, Fig. 2f; binding to Hck-SH3 compared with Lck-SH3
Excerpt: as §1, §2, §3

Lyn-SH3 = conditions: phage-displayed peptide, Fig. 2f; binding to Lyn-SH3 compared with Lck-SH3
Excerpt: as §1, §2, §3

relative SH3-Bindungsaktivität (Lck-SH3): nicht die stärkste Bindung
relative SH3-Bindungsaktivität (Hck-SH3): ähnlich gut
relative SH3-Bindungsaktivität (Lyn-SH3): ähnlich gut
Sequence: HSKYPLPPLPSL [PD1, control peptide from standard selection with Lck-SH3 as bait]
